Values belong to the molecule of their own block, whether it stands above or below them.
How the values were obtained:
MCF7 [1] = test: Antiproliferative activity against human MCF7 cells; format: functional, cell-based
NCI/ADR-RES [2] = test: Antiproliferative activity against human MCF7ADR cells; format: functional, cell-based
[3] = Antiproliferative activity against mouse MC3T3-E1 cells; format: toxicity, cell-based
A549 [4] = test: Antiproliferative activity against human A549 cells; format: functional, cell-based
A549 [5] = test: Antiproliferative activity against human A549 cells incubated by 48 hrs by MTT assay; format: functional, cell-based; details: A549, 48 h
K562 [6] = test: Antiproliferative activity against human K562 cells incubated by 48 hrs by MTT assay; format: functional, cell-based; details: K562, 48 h
HepG2 [7] = test: Antiproliferative activity against human HepG2 cells incubated by 48 hrs by MTT assay; format: functional, cell-based; details: HepG2, 48 h
PC-3 = test: Antiproliferative activity against human PC-3 cells incubated by 48 hrs by MTT assay; format: functional, cell-based; details: PC-3, 48 h
Hep 3B2 [8] = test: Anticancer activity against human Hep3B cells measured after 48 hrs; format: functional, cell-based
Hep 3B2 [9] = test: Antiproliferative activity against human Hep3B cells measured after 48 hrs by MTT assay; format: functional, cell-based
MCF7 [10] = test: Cytotoxicity against human MCF7 cells measured after 3 days by MTT assay; format: functional, cell-based; details: MCF7, 72 h
A498 [11] = test: Cytotoxicity against human A498 cells measured after 3 days by MTT assay; format: functional, cell-based; details: A498, 72 h
SK-OV-3 [12] = test: Cytotoxicity against human SK-OV-3 cells measured after 3 days by MTT assay; format: functional, cell-based; details: SK-OV-3, 72 h
T-24 = test: Antiproliferative activity against human T24 cells assessed as inhibition of cell growth; format: functional, cell-based
A549 [13] = test: Antiproliferative activity against human A549 cells assessed as cell growth inhibition; format: functional, cell-based
SK-OV-3 [14] = test: Antiproliferative activity against human SK-OV-3 cells assessed as inhibition of cell growth; format: functional, cell-based
HeLa [15] = test: Antiproliferative activity against human HeLa cells assessed as cell growth inhibition; format: functional, cell-based
HepG2 [16] = test: Antiproliferative activity against human HepG2 cells assessed as inhibition of cell growth; format: functional, cell-based
[17] = Antiproliferative activity against human HL7702 cells assessed as inhibition of cell growth; format: toxicity, cell-based; details: HL7702 (L02) cells
A549 [18] = test: Antiproliferative activity against human A549 cells assessed as inhibition of cell viability; format: functional, cell-based
A549/CDDP = test: Antiproliferative activity against human A549/DDP cells assessed as inhibition of cell viability; format: functional, cell-based
[19] = Antiproliferative activity against human HL7702 cells assessed as inhibition of cell viability; format: toxicity, cell-based; details: HL7702 (L02) cells
NCI/ADR-RES [20] = test: Growth inhibition of human MCF7ADR cells assessed as reduction in cell viability; format: functional
U-251 = test: Growth inhibition of human U-251 cells assessed as reduction in cell viability; format: functional
SW-620 = test: Growth inhibition of human SW620 cells assessed as reduction in cell viability; format: functional
NCI-H522 = test: Growth inhibition of human NCI-H522 cells assessed as reduction in cell viability; format: functional
M14 = test: Growth inhibition of human M14 cells assessed as reduction in cell viability; format: functional
SK-OV-3 [21] = test: Growth inhibition of human SK-OV-3 cells assessed as reduction in cell viability; format: functional
DU-145 = test: Growth inhibition of human DU-145 cells assessed as reduction in cell viability; format: functional
A498 [22] = test: Growth inhibition of human A498 cells assessed as reduction in cell viability; format: functional
HeLa [23] = test: Antiproliferative activity against human HeLa cells; format: functional, cell-based
B16-F10 = test: Antiproliferative activity against mouse B16-F10 cells; format: functional, cell-based
[24] = Antiproliferative activity against human LX-2 cells; format: toxicity, cell-based
K562 [25] = test: Antiproliferative activity against human K562 cells incubated for 48 hrs; format: functional, cell-based; details: K562, 48 h
HeLa [26] = test: Antiproliferative activity against human HeLa cells incubated for 48 hrs; format: functional, cell-based
CT26 = test: Antiproliferative activity against mouse CT26 cells incubated for 48 hrs; format: functional, cell-based; details: CT26, 48 h
MCF7 [27] = test: Antiproliferative activity against human MCF7 cells assessed as inhibition of cell growth; format: functional, cell-based
A549 [28] = test: Antiproliferative activity against human A549 cells assessed as inhibition of cell growth; format: functional, cell-based
HeLa [29] = test: Antiproliferative activity against human HeLa cells assessed as inhibition of cell growth; format: functional, cell-based
[30] = Cytotoxicity against human HEK293 cells assessed as inhibition of cell growth; format: toxicity, cell-based
HT-29 = test: Antiproliferative activity against human HT-29 cells; format: functional, cell-based
PANC-1 = test: Antiproliferative activity against human PANC-1 cells; format: functional, cell-based
MDA-MB-231 = test: Antiproliferative activity against human MDA-MB-231 cells; format: functional, cell-based
[31] = Cytotoxicity activity against human HDF cells; format: toxicity, cell-based; details: HDF cells (NHDF)

Compound: O=C1c2cc(F)ccc2-n2c1nc1ccccc1c2=O
IC50 [3]: 97 µM
IC50 (A549 [4]): 10.9 µM
IC50 (A549 [5]): 2.36 µM
IC50 (K562 [6]): 2.66 µM
IC50 (HepG2 [7]): 1.97 µM
IC50 (PC-3): 10.6 µM
IC50 (Hep 3B2 [8]): 4.1 µM

Compound: c1ccc(CNCc2ccccn2)nc1
IC50 (A549 [18]): > 100 µM
IC50 (A549/CDDP): > 100 µM
IC50 [19]: > 100 µM

Compound: O=c1c2ccccc2nc2n1-c1ccccc1/C2=N\OCCN1CCCC1
GI50 (DU-145): 2 µM

Compound: O=C1c2ccccc2-n2c1nc1ccc(F)cc1c2=O
IC50 (A549 [5]): 2.34 µM
IC50 (K562 [6]): 6.77 µM
IC50 (HepG2 [7]): 5.63 µM
IC50 (PC-3): 9.7 µM
IC50 (Hep 3B2 [8]): > 20 µM

Compound: N/N=C1/c2cc(F)ccc2-n2c1nc1ccccc1c2=O
IC50 (MCF7 [10]): 1.4 µM
IC50 (A498 [11]): 1.26 µM
IC50 (SK-OV-3 [12]): 8.51 µM

Compound: O=C1c2cc([N+](=O)[O-])ccc2-n2c1nc1ccccc1c2=O
IC50 (HeLa [23]): 0.34 µM
IC50 (B16-F10): 0.49 µM
IC50 [24]: 0.83 µM
IC50 (A549 [5]): 6.88 µM
IC50 (K562 [6]): 8.05 µM
IC50 (HepG2 [7]): 7.89 µM
IC50 (PC-3): 11.8 µM
IC50 (Hep 3B2 [8]): 1.4 µM
GI50 (NCI/ADR-RES [20]): 0.7 µM
GI50 (U-251): > 100 µM
GI50 (SW-620): 4 µM
GI50 (NCI-H522): 0.7 µM
GI50 (M14): 0.8 µM
GI50 (SK-OV-3 [21]): 5 µM
GI50 (DU-145): 0.15 µM
GI50 (A498 [22]): 3 µM

Compound: C=C[C@@H]1[C@@]2(c3ccccc3)[C@H]3CCCN3[C@@]3(c4ccccc4-n4c3nc3ccccc3c4=O)[C@@]12c1ccccc1
IC50 (K562 [25]): > 50 µM
IC50 (HeLa [26]): > 50 µM
IC50 (CT26): 10 µM

Compound: O=C1C2C=CC=CC2=NC2/C(=N\Nc3nc(-c4ccc(Br)cc4)cs3)c3ccccc3N12 (stereo unspecified)
IC50 (MCF7 [27]): 12.7 µM
IC50 (A549 [28]): 16.9 µM
IC50 (HeLa [29]): 19.3 µM
IC50 [30]: 73.3 µM

Compound: Cc1nn(Cl)c2c1[C@@]1(C(C#N)=CO2)c2cc(-c3cccc(Cl)c3)ccc2-n2c1nc1ccccc1c2=O
IC50 (HT-29): > 100 µM
IC50 (PANC-1): 60.6 µM
IC50 (MDA-MB-231): 92.8 µM
IC50 [31]: > 100 µM

Compound: O=C1c2cc(Br)ccc2-n2c1nc1ccc(F)cc1c2=O
IC50 (Hep 3B2 [8]): 5.8 µM

Compound: Cc1nn(Br)c2c1[C@@]1(C(C#N)=CO2)c2cc(-c3ccccc3)ccc2-n2c1nc1ccccc1c2=O
IC50 (HT-29): > 100 µM
IC50 (PANC-1): 85.3 µM
IC50 (MDA-MB-231): 65.4 µM
IC50 [31]: > 100 µM

Compound: Cc1nn(Cl)c2c1[C@@]1(C(C#N)=C(N)O2)c2cc(-c3ccccc3)ccc2-n2c1nc1ccccc1c2=O
IC50 (HT-29): > 100 µM
IC50 (PANC-1): > 100 µM
IC50 (MDA-MB-231): 62.8 µM
IC50 [31]: > 100 µM

Continued, in another order:

IC50 (MCF7 [1]): 82.1 µM
Compound: O=c1c2ccccc2nc2n1-c1ccccc1/C2=N\O
IC50 (NCI/ADR-RES [2]): 75.3 µM

IC50 (A549 [13]): > 150 µM
IC50 (SK-OV-3 [14]): 79.1 µM
IC50 (HeLa [15]): > 150 µM
IC50 (HepG2 [16]): 88.6 µM
Compound: O=C1c2cc(I)ccc2-n2c1nc1ccccc1c2=O
IC50 (Hep 3B2 [9]): 2.4 µM
IC50 (MCF7 [10]): 1.5 µM
IC50 (A498 [11]): 1.86 µM
IC50 (SK-OV-3 [12]): 0.65 µM
IC50 (T-24): 85.2 µM
IC50 [17]: 94.1 µM

GI50 (U-251): 15 µM
GI50 (SW-620): 8 µM
GI50 (NCI-H522): 50 µM
GI50 (SK-OV-3 [21]): 30 µM
GI50 (DU-145): 50 µM
Compound: O=C1c2cc3ccccc3cc2-n2c1nc1ccccc1c2=O
GI50 (NCI/ADR-RES [20]): 15 µM
GI50 (M14): 40 µM
GI50 (A498 [22]): 60 µM

IC50 (A549 [4]): 22.6 µM
IC50 (A549 [5]): 4.21 µM
IC50 (K562 [6]): 3.67 µM
IC50 (HepG2 [7]): 2.95 µM
IC50 (PC-3): 8.48 µM
Compound: O=C1c2cc(Cl)ccc2-n2c1nc1ccccc1c2=O
IC50 [3]: > 100 µM
IC50 (Hep 3B2 [9]): 3.7 µM

IC50 (Hep 3B2 [8]): 6.5 µM
Compound: Cc1ccc2c(c1)C(=O)c1nc3ccccc3c(=O)n1-2

GI50 (SW-620): 10 µM
GI50 (SK-OV-3 [21]): 6 µM
GI50 (DU-145): 10 µM
Compound: C=C[C@]1(O)c2ccccc2-n2c1nc1ccccc1c2=O
GI50 (NCI/ADR-RES [20]): 20 µM
GI50 (M14): 8 µM

GI50 (U-251): > 100 µM
GI50 (SW-620): > 100 µM
GI50 (NCI-H522): > 100 µM
GI50 (SK-OV-3 [21]): > 100 µM
GI50 (DU-145): > 100 µM
Compound: C[C@]1(O)c2ccccc2-n2c1nc1ccccc1c2=O
GI50 (NCI/ADR-RES [20]): > 100 µM
GI50 (M14): > 100 µM
GI50 (A498 [22]): > 100 µM
